This note sets out measurements from US20100183585A1, “METHODS AND COMPOSITIONS FOR TREATING TUMORS AND METASTASES THROUGH THE MODULATION OF LATEXIN” (University of Kentucky Research Foundation, priority 2008, published 2010).

For this assay, the system named is latexin. Briefly: latexin mRNA by quantitative real-time PCR in leukemic cell lines after 5-aza-2′-deoxycytidine treatment. The assay is classed as cell-based, human. The conditions noted are these: for latexin gene expression: 2 μM for 4 days. The method, then: To measure the expression of latexin in leukemic cells, quantitative real-time PCR was performed. Identical numbers (200,000) of cells were used for total RNA extraction using RNeasy Mini kit (QIAGEN, Valencia, Calif.) according to the manufacture's instructions. Isolated total RNA was reverse transcribed into cDNA using random hexamers in TaqMan® reverse transcription solution (PN N8080234), and stored at −20° C. In real-time PCR reactions, primer and probe mix for human latexin were purchased from Applied Biosystems (Foster city, CA, USA). TaqMan® human glyceraldehyde-3-phosphate dehydrogenase (GAPDH) was served as an endogenous control to normalize latexin expression. PCR reactions were set up as per manufacturer's instructions using TaqMan® universal PCR master mix (PN 4304437). Analyses of gene expression were performed in single reporter assays in an ABI PRISM 7700 sequence detection system (PE Biosystems, Foster city, CA, USA).
To examine the correlation of promoter hypermethylation and latexin gene expression, leukemia cell lines shown to have a lack of or decrease in latexin expression were subjected to 5-aza-2′-deoxycytidine treatment. Cells were plated with 2 ? M 5-aza-2′-deoxycytidine (Sigma-Aldrich; St. Louis, Mo.), and incubated for 4 days. The medium and the drug were replaced every 24 hours, and cells were harvested for RNA and DNA extraction 4 days after treatment.

Take `Nc1ncn([C@H]2C[C@H](O)[C@@H](CO)O2)c(=O)n1` [5-aza-2′-deoxycytidine]: the latexin gene expression result is, setting by setting: (HL-60, KG-1, SupB15 lines) “significantly up-regulated”; (K562, Molt4, CCRF-CEM, J45.01, Jurkat, U937 (completely lacked latexin expression prior to treatment)) “reactivated”. Further, under “human leukemia and lymphoma cell lines treated with the demethylating reagent”, the latexin expression entry is reported as “re-initiated or up-regulated”.
